Patent US12358907B2, “Substituted pyrrolidine amides III” (GRÜNENTHAL GMBH, priority 2019, dated 2025)
Like-named read-outs stand apart in the source and are kept apart here.

Experiments:
[1] = target: glucocorticoid receptor (GAL4 DBD-GR) (Homo sapiens (Human), UniProt P04150); assay: GR cell-based assays (GRE agonist / GRE antagonist), CHO-Gal4/GR luciferase reporter
Summary of the method: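 CHO cells stably carrying GAL4 DBD-GR ligand-binding-domain fusion and a GAL4-UAS firefly luciferase reporter were treated in Opti-MEM with 8 half-log concentrations from 10 μM to 0.003 μM (0.5% DMSO, quadruplicates). Antagonist mode measured repression of beclomethasone-induced signal. Luminescence after lysis gave EC50 or IC50.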

[2] = target: human glucocorticoid receptor (Homo sapiens (Human), UniProt P04150); assay: Human glucocorticoid receptor (hGR) ligand-binding assay (3H-dexamethasone competition, IM9 cytosol); conditions: read-out: % inhibition hGR at 1 μM
Protocol: Preferably, the glucocortitcoid receptor extracted from cytosol of IM9 cells is used for competitive radioligand binding assays to calculate percentage inhibition of the binding of radiolabeled ligand 3H-dexamethasone at the human glucocorticoid receptor.
The human lymphoblast cell line IM9 (ATCC, Bethesda, MD) was cultivated in RPMI 1640 media containing 10% fetal bovine serum, penicillin (100 U/ml), streptomycin (100 μg/ml), and 2 mM L-glutamine at 37° and 7% CO2 in a humidified incubator. Cells were centrifuged for 10 minutes at 1500 g and were washed in PBS and repelleted. Cell were then resuspended in homogenization buffer consisting of: 10 mM TES, 10 mM sodium molybdate, 1 mM EDTA, pH 7.4, 20 mM 2-mercaptoethanol, and 10% glycerol. Disruption of the cells was performed by nitrogen cavitation using 2×15 minutes at 600 to 750 psi nitrogen in a N2 cavitator at 0° C. The cell preparation was then centrifuged at 27,000 g for 15 minutes, and the resultant supernatant (=cytosol of IM9 cells) was centrifuged at 103,000 g for 60 minutes at 4° C. The amount of protein in the supernatant fraction was determined using a BCA assay kit and aliquots were snap frozen in a dry ice-acetone bath and stored at −70° C. Competitive binding assays were done in duplicate in homogenization buffer with a total volume of 200 μl. To this end, 1 mg of IM9 cytosol, 0.05 μCi (1.5 nM) of 3H-dexamethasone and unlabeled Example compounds as competitor compounds at 1 μM were mixed. The reaction was stopped after incubation at 0° C. for 16 to 18 hours by the addition of 100 μl of a charcoal-dextran mixture (2% activated charcoal, 0.5% dextran in 10 mM Tris, 1 mM EDTA, pH 7.4). Another incubation step at 0° C. for 10 minutes followed before the samples were centrifuged for 5 minutes at 8200 g. 100 μl of the supernatant) was finally assayed for radioactivity by liquid scintillationspectrometry, and percentage inhibition of 3H-dexamethasone binding was calculated.

human glucocorticoid receptor, sequence (P04150 whole entry): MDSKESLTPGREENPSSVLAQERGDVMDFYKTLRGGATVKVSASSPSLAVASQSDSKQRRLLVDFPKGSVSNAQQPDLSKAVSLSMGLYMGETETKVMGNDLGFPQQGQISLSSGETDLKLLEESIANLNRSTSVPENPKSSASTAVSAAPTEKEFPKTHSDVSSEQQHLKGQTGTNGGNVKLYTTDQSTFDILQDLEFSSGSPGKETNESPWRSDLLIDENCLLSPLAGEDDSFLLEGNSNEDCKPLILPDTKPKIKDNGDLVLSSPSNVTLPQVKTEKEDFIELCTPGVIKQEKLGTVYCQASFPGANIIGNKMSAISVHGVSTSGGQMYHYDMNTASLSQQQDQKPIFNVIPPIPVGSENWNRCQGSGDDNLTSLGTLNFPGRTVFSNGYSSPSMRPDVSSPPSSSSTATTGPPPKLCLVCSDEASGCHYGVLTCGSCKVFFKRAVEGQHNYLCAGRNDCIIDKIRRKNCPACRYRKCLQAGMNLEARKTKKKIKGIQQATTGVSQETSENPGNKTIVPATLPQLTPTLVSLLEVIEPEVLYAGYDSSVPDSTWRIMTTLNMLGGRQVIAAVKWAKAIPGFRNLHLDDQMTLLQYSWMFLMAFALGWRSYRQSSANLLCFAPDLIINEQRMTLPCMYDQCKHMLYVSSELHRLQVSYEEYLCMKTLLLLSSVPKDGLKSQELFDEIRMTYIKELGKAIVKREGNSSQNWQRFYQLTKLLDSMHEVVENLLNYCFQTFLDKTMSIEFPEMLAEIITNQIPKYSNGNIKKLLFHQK
glucocorticoid receptor (GAL4 DBD-GR), sequence (P04150 524-758): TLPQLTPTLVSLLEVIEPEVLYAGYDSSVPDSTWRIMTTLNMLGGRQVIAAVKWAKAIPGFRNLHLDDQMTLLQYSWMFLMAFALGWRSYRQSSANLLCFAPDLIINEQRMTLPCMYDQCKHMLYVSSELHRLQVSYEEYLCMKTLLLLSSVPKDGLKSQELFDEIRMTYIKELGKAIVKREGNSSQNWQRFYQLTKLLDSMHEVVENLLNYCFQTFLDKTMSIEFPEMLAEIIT

| IC50 ([1]; read-out: IC50 or EC50) | inhibition at 1 µM [2] | IC50 ([1]; CHO-Gal4/GR reporter cells, agonist mode (EC50) or antagonist mode against beclometasone (IC50), 6 hour incubation) | Structure (SMILES) |
| --- | --- | --- | --- |
| < 100 nM | 98% |  | O=C(N[C@@H]1[C@@H](c2ccccc2)N(c2ccc3c(cnn3-c3ccc(F)cc3)c2)C(=O)C12CC2)C1CC1 (racemic) [Example 3, N-[rac-(6R,7S)-5-[1-(4-Fluorophenyl)-1H-indazol-5-yl]-4-oxo-6-phenyl-5-azaspiro[2.4]heptan-7-yl]-cyclopropanecarboxylic acid amide] |
| 100 to 1000 nM | 95% |  | O=C(N[C@@H]1[C@@H](c2ccccc2)N(c2ccc3c(ccn3-c3ccc(F)cc3)c2)C(=O)C12CC2)C1CC1 (racemic) [Example 5, N-trans-(5-(1-(4-fluorophenyl)-1H-indol-5-yl)-4-oxo-6-phenyl-5-azaspiro[2.4]heptan-7-yl)cyclopropanecarboxamide] |
|  | 27% |  | Cn1cc(-n2ncc3cc(N4C(=O)C5(CC5)[C@H](NC(=O)C5CC5)[C@H]4c4ccccc4)ccc32)ccc1=O (racemic) [Example 30, N-[rac-(6R,7S)-5-[1-(1-Methyl-6-oxo-1H-pyridin-3-yl)-1H-indazol-5-yl]-4-oxo-6-phenyl-5-azaspiro[2.4]heptan-7-yl]-cyclopropanecarboxylic acid amide] |
|  | 99% | < 100 nM | CC1(C)C(=O)N(c2ccc3c(cnn3-c3ccc(F)cc3)c2)[C@H](c2ccccc2)[C@H]1NC(=O)C1CC1 [Example 1, N-[(2R,3S)-1-[1-(4-Fluorophenyl)-1H-indazol-5-yl]-4,4-dimethyl-5-oxo-2-phenyl-pyrrolidin-3-yl]-cyclopropanecarboxylic acid amide] |
| 100 to 1000 nM | 91% |  | CC1(C)C(=O)N(c2ccc3c(cnn3-c3ccc(F)cc3)c2)[C@@H](c2ccccc2)[C@@H]1NC(=O)C1CC1 [Example 2, N-[(2S,3R)-1-[1-(4-Fluorophenyl)-1H-indazol-5-yl]-4,4-dimethyl-5-oxo-2-phenyl-pyrrolidin-3-yl]-cyclopropanecarboxylic acid amide] |
| 100 to 1000 nM | 95% |  | CC(F)(F)C(=O)N[C@H]1[C@H](c2ccccc2)N(c2ccc3c(cnn3-c3ccc(F)cc3)c2)C(=O)C1(C)C [Example 4, 2,2-Difluoro-N-[(2S,3R)-1-[1-(4-fluorophenyl)-1H-indazol-5-yl]-4,4-dimethyl-5-oxo-2-phenyl-pyrrolidin-3-yl]-propionamide] |
|  | 12% |  | Cn1cc(-n2ncc3cc(N4C(=O)C(C)(C)[C@@H](NC(=O)C(C)(F)F)[C@@H]4c4ccccc4)ccc32)ccc1=O [Example 8, N-[(2S,3R)-4,4-Dimethyl-1-[1-(1-methyl-6-oxo-1H-pyridin-3-yl)-1H-indazol-5-yl]-5-oxo-2-phenyl-pyrrolidin-3-yl]-2,2-difluoro-propionamide] |
|  | 86% |  | Cn1cc(-n2ncc3cc(N4C(=O)C(C)(C)[C@H](NC(=O)C(C)(F)F)[C@H]4c4ccccc4)ccc32)ccc1=O [Example 9, N-[(2R,3S)-4,4-Dimethyl-1-[1-(1-methyl-6-oxo-1H-pyridin-3-yl)-1H-indazol-5-yl]-5-oxo-2-phenyl-pyrrolidin-3-yl]-2,2-difluoro-propionamide] |
|  | 100% |  | CC(F)(F)C(=O)N[C@@H]1[C@@H](c2ccccc2)N(c2ccc3c(cnn3-c3ccc(F)cc3)c2)C(=O)C1(C)C [Example 10, 2,2-Difluoro-N-[(2R,3S)-1-[1-(4-fluorophenyl)-1H-indazol-5-yl]-4,4-dimethyl-5-oxo-2-phenyl-pyrrolidin-3-yl]-propionamide] |

The next lines start with the compound.

| Structure (SMILES) | IC50 ([1]; read-out: IC50 or EC50) | inhibition at 1 µM [2] | IC50 ([1]; CHO-Gal4/GR reporter cells, agonist mode (EC50) or antagonist mode against beclometasone (IC50), 6 hour incubation) |
| --- | --- | --- | --- |
| Cn1ccc(C(=O)N[C@@H]2[C@@H](c3ccccc3)N(c3ccc4c(cnn4-c4ccc(=O)n(C)c4)c3)C(=O)C2(C)C)n1 [Example 12, N-[(2R,3S)-4,4-Dimethyl-1-[1-(1-methyl-6-oxo-1H-pyridin-3-yl)-1H-indazol-5-yl]-5-oxo-2-phenyl-pyrrolidin-3-yl]-1-methyl-1H-pyrazole-3-carboxylic acid amide] |  | 83% |  |
| Cn1cc(-n2ncc3cc(N4C(=O)C(C)(C)[C@H](NC(=O)c5cnco5)[C@H]4c4ccccc4)ccc32)ccc1=O [Example 13, N-[(2R,3S)-4,4-Dimethyl-1-[1-(1-methyl-6-oxo-1H-pyridin-3-yl)-1H-indazol-5-yl]-5-oxo-2-phenyl-pyrrolidin-3-yl]-oxazole-5-carboxylic acid amide] |  | 20% |  |
| Cc1nc(C(=O)N[C@@H]2[C@@H](c3ccccc3)N(c3ccc4c(cnn4-c4ccc(=O)n(C)c4)c3)C(=O)C2(C)C)no1 [Example 14, N-[(2R,3S)-4,4-Dimethyl-1-[1-(1-methyl-6-oxo-1H-pyridin-3-yl)-1H-indazol-5-yl]-5-oxo-2-phenyl-pyrrolidin-3-yl]-5-methyl-[1,2,4]oxadiazole-3-carboxylic acid amide] |  | 84% |  |
| Cn1cc(-n2ncc3cc(N4C(=O)C(C)(C)[C@H](NC(=O)c5cncs5)[C@H]4c4ccccc4)ccc32)ccc1=O [Example 15, N-[(2R,3S)-4,4-Dimethyl-1-[1-(1-methyl-6-oxo-1H-pyridin-3-yl)-1H-indazol-5-yl]-5-oxo-2-phenyl-pyrrolidin-3-yl]-thiazole-5-carboxylic acid amide] |  | 87% |  |
| Cc1ncsc1C(=O)N[C@@H]1[C@@H](c2ccccc2)N(c2ccc3c(cnn3-c3ccc(=O)n(C)c3)c2)C(=O)C1(C)C [Example 16, N-[(2R,3S)-4,4-Dimethyl-1-[1-(1-methyl-6-oxo-1H-pyridin-3-yl)-1H-indazol-5-yl]-5-oxo-2-phenyl-pyrrolidin-3-yl]-4-methyl-thiazole-5-carboxylic acid amide] |  | 30% |  |
| Cn1cc(-n2ncc3cc(N4C(=O)C(C)(C)[C@H](NC(=O)c5cscn5)[C@H]4c4ccccc4)ccc32)ccc1=O [Example 17, N-[(2R,3S)-4,4-Dimethyl-1-[1-(1-methyl-6-oxo-1H-pyridin-3-yl)-1H-indazol-5-yl]-5-oxo-2-phenyl-pyrrolidin-3-yl]-thiazole-4-carboxylic acid amide] |  | 80% |  |
| Cc1scnc1C(=O)N[C@@H]1[C@@H](c2ccccc2)N(c2ccc3c(cnn3-c3ccc(=O)n(C)c3)c2)C(=O)C1(C)C [Example 18, N-[(2R,3S)-4,4-Dimethyl-1-[1-(1-methyl-6-oxo-1H-pyridin-3-yl)-1H-indazol-5-yl]-5-oxo-2-phenyl-pyrrolidin-3-yl]-5-methyl-thiazole-4-carboxylic acid amide] |  | 29% |  |
| Cn1cc(-n2ncc3cc(N4C(=O)C(C)(C)[C@@H](NC(=O)c5cnco5)[C@@H]4c4ccccc4)ccc32)ccc1=O [Example 21, N-[(2S,3R)-4,4-Dimethyl-1-[1-(1-methyl-6-oxo-1H-pyridin-3-yl)-1H-indazol-5-yl]-5-oxo-2-phenyl-pyrrolidin-3-yl]-oxazole-5-carboxylic acid amide] |  | 22% |  |
| Cc1cc(C(=O)N[C@H]2[C@H](c3ccccc3)N(c3ccc4c(cnn4-c4ccc(=O)n(C)c4)c3)C(=O)C2(C)C)no1 [Example 22, N-[(2S,3R)-4,4-Dimethyl-1-[1-(1-methyl-6-oxo-1H-pyridin-3-yl)-1H-indazol-5-yl]-5-oxo-2-phenyl-pyrrolidin-3-yl]-5-methyl-isoxazole-3-carboxylic acid amide] |  | 18% |  |
| Cn1cc(-n2ncc3cc(N4C(=O)C(C)(C)[C@@H](NC(=O)c5cncs5)[C@@H]4c4ccccc4)ccc32)ccc1=O [Example 24, N-[(2S,3R)-4,4-Dimethyl-1-[1-(1-methyl-6-oxo-1H-pyridin-3-yl)-1H-indazol-5-yl]-5-oxo-2-phenyl-pyrrolidin-3-yl]-thiazole-5-carboxylic acid amide] |  | 12% |  |
